The results in this text go back to ChEMBL document CHEMBL6109107, “Exploring the broad-spectrum activity of carbohydrate-based Iberin analogues: From anticancer effect to antioxidant properties” (Eur J Med Chem, 2025).

Calls of active or inactive are those of the source. No cut-off for these calls is given here.

Data set [1] deals with A549. As to the kind of experiment: Cytotoxicity against human A549 cells assessed as reduction in cell viability incubated for 72 hrs by resazurin dye based assay. Conditions: A549, 72 h. It is filed as functional. For orientation: Resazurin is reduced to fluorescent resorufin, in cell work by metabolically active cells.
Another data set has as its system T-24. As to the kind of experiment: Cytotoxicity against human T24 cells assessed as reduction in cell viability incubated for 72 hrs by resazurin dye based assay. It is filed as functional. Conditions: T-24, 72 h.
The next data set deals with MeWo. As to the kind of experiment: Cytotoxicity against human MeWo cells assessed as reduction in cell viability incubated for 72 hrs by resazurin dye based assay. In kind it is functional.
The nature of data set [2]: Cytotoxicity against human HaCaT cells assessed as reduction in cell viability incubated for 72 hrs by resazurin dye based assay. It is filed as toxicity.
Data set [3] is described as follows: Cytotoxicity against human Arec32 cells assessed as cell viability by MTT assay. It is filed as toxicity, cell-based. Background: Tetrazolium dyes change colour on reduction, which living cells bring about.
In data set [4] the test system is Arec32. As to the kind of experiment: Induction of Nrf2 activity in human Arec32 cells assessed as increase in luciferase expression at >30 uM incubated for 24 hrs by luminescence based plate reader analysis. In kind it is cell-based.
Data set [5] is described as follows: Selectivity index, ratio of IC50 for human HaCaT cells to IC50 for human T24 cells. In kind it is toxicity. Conditions: HaCaT cells versus T24 cells, read-out: Ratio IC50.
Data set [6] in a line: Selectivity index, ratio of IC50 for human HaCaT cells to IC50 for human MeWo cells. The note with it: HaCaT cells versus MeWo cells, read-out: Ratio IC50. It is filed as toxicity.
Data set [7] in a line: Selectivity index, ratio of IC50 for human HaCaT cells to IC50 for human A549 cells. It is filed as toxicity. Conditions: HaCaT cells versus A549 cells, read-out: Ratio IC50.
The test system of data set [8] is Arec32. As to the kind of experiment: Induction of Nrf2 activity in human Arec32 cells assessed as drug concentration required to double luciferase expression incubated for 24 hrs by luminescence based plate reader analysis. The note with it: filed as activator. It is filed as cell-based.
Data set [9] deals with A549. Nature of the data set: Cytotoxicity against human A549 cells assessed as inhibition of cell growth incubated for 72 hrs by MTT assay. Conditions: A549, 72 h. In kind it is functional, cell-based.

Regarding `CS[C@@H]1[C@@H](OC(C)=O)[C@H](N=C=S)O[C@H](COC(C)=O)[C@H]1OC(C)=O`, the figures for the IC50 with A549 [1], in the data set on T-24 and with MeWo were 47.9 µM, 30.9 µM and 47 µM, respectively. Moreover, in data set [2], the IC50 at 72 h is 45.3 µM. Further, in data set [3], the EC50 is over 30 µM. Also, the result in the data set with Arec32 [4] was inactive. Further, the selectivity ratio in data set [5] stood at 1.5; in [6] it was 1; in [7], 0.9.
Take `CC(=O)OC[C@H]1O[C@@H](N=C=S)[C@H](OC(C)=O)[C@@H]([S+](C)[O-])[C@@H]1OC(C)=O` (mixture of isomers): the figures for the IC50 in the data set with A549 [1], with T-24 and with MeWo were 183 µM, 159 µM and 178 µM, respectively. In the data set on Arec32 [8], the CD was determined as 5.75 µM. Further, the half-maximal inhibitory concentration (IC50) at 72 h in [2] was 180 µM. The EC50 in [3] was over 30 µM. For the same molecule, the selectivity ratio in data set [5] turned out to be 1.1; in data set [6] it was 1; in data set [7] it was 1.
Consider `CS(=O)(=O)CCCN=C=S`, for which the IC50 was 25.2 µM with A549 [1], 10.7 µM in the data set with T-24 and 29.5 µM in the data set on MeWo. For the same molecule, in the data set on Arec32 [8], the CD was determined as 3.22 µM. Moreover, in [2], the IC50 at 72 h came out at 35.9 µM. For the same molecule, the EC50 in data set [3] was over 30 µM. Also, the results for the selectivity ratio in data set [5], in data set [6] and in data set [7] were 3.3, 1.3 and 1.9, respectively.
In the case of `CC[S+]([O-])[C@@H]1[C@@H](OC(C)=O)[C@H](N=C=S)O[C@H](COC(C)=O)[C@H]1OC(C)=O` (mixture of isomers), the results for the IC50 with A549 [1], in the data set on T-24 and in the data set on MeWo were 155 µM, 113 µM and 118 µM, respectively. Also, the CD with Arec32 [8] was determined as 6.32 µM. The IC50 at 72 h in data set [2] was 141 µM. Moreover, the EC50 in data set [3] was over 30 µM. Besides, the selectivity ratio in data set [5] worked out at 1.1; in data set [6] it was 1.1; in data set [7], 0.9.
As for `CC(=O)OC[C@H]1O[C@@H](N=C=S)[C@H](OC(C)=O)[C@@H](Sc2ccccc2)[C@@H]1OC(C)=O`, the values for the IC50 with A549 [1], in the data set with T-24 and in the data set with MeWo were 24.9 µM, 19.4 µM and 29.1 µM, respectively. Also, the IC50 at 72 h in data set [2] is 23.2 µM. The concentration giving a half-maximal response (EC50) in [3] was over 30 µM. In the data set with Arec32 [4], the outcome was inactive. Further, the selectivity ratio in data set [5] turned out to be 1.2; in data set [6], 0.9; in data set [7], 1.
As to `CC(=O)OC[C@H]1O[C@@H](N=C=S)[C@H](OC(C)=O)[C@@H](S(=O)(=O)c2ccccc2)[C@@H]1OC(C)=O`, the IC50 is 40.3 µM with A549 [1], 16.8 µM in the data set on T-24 and 22.9 µM in the data set on MeWo. Also, the CD in the data set on Arec32 [8] came to 2.09 µM. For the same molecule, the IC50 at 72 h in [2] was found to be 27.5 µM. In addition, the EC50 in [3] is over 30 µM. Also, the values for the selectivity ratio in data set [5], in data set [6] and in data set [7] were 1.6, 1.2 and 0.7, respectively.
Regarding `Nc1ccn([C@@H]2O[C@H](CO)[C@@H](O)C2(F)F)c(=O)n1` [GEMCITABINE], the IC50 in the data set with A549 [1] is 3 µM; in the data set on T-24 it was 2.1 µM; in the data set with MeWo it was 5.2 µM. For the same molecule, the IC50 at 72 h in data set [2] came to 7.1 µM. The selectivity ratio was determined as 4.2 in [5], 1.6 in [6] and 2.6 in data set [7].
As to `CCS[C@@H]1[C@@H](OC(C)=O)[C@H](N=C=S)O[C@H](COC(C)=O)[C@H]1OC(C)=O`, the IC50 was 48.8 µM in the data set on A549 [1], 31.5 µM in the data set on T-24 and 50 µM with MeWo. For the same molecule, the IC50 at 72 h in data set [2] worked out at 46.3 µM. Besides, the EC50 in [3] is over 30 µM. Besides, the outcome with Arec32 [4] was inactive. For the same molecule, the selectivity ratio in data set [5] worked out at 1.5; in data set [6], 0.9; in data set [7], 0.9.
On to `CSCCCN=C=S`, for which the half-maximal inhibitory concentration (IC50) is 31.1 µM with A549 [1], 14.4 µM with T-24, 31.6 µM in the data set with MeWo and 48 µM in the data set on A549 [9]. The CD with Arec32 [8] turned out to be 2.94 µM. Moreover, in data set [2], the IC50 at 72 h was 43.9 µM. For the same molecule, the EC50 in [3] is over 30 µM. Further, the selectivity ratio stood at 3.2 in data set [5], 1.5 in data set [6] and 1.7 in data set [7].
Take `CC(=O)OC[C@H]1O[C@@H](N=C=S)[C@H](OC(C)=O)[C@@H]([S@+]([O-])c2ccccc2)[C@@H]1OC(C)=O`: the IC50 in the data set on A549 [1] worked out at 58.9 µM; in the data set on T-24, 48.9 µM; in the data set with MeWo, 57.4 µM. The CD in the data set with Arec32 [8] came to 2.09 µM. Also, the IC50 at 72 h in data set [2] turned out to be 61.2 µM. For the same molecule, the half-maximal effective concentration (EC50) in data set [3] is over 30 µM. The results for the selectivity ratio in [5], in data set [6] and in data set [7] were 1.3, 1.1 and 1, respectively.
As for `CC(C)(C)c1cc(O)ccc1O` [E319], the CD in the data set with Arec32 [8] was 1.68 µM. Further, the EC50 in data set [3] is over 30 µM.
For `C[S+]([O-])CCCN=C=S` (racemic), the IC50 with A549 [1] turned out to be 20.7 µM; in the data set with T-24, 12.2 µM; in the data set on MeWo, 32.8 µM; in the data set on A549 [9], 30.2 µM. Also, the CD in the data set on Arec32 [8] worked out at 3.12 µM. Besides, the IC50 at 72 h in data set [2] turned out to be 33 µM. Further, the EC50 in [3] is over 30 µM. The selectivity ratio in data set [5] turned out to be 2.9; in data set [6] it was 1; in data set [7], 1.8.
On to `CC(=O)OC[C@H]1O[C@@H](N=C=S)[C@H](OC(C)=O)[C@@H]([S@@+]([O-])c2ccccc2)[C@@H]1OC(C)=O`, for which the IC50 with A549 [1] was 74.9 µM; in the data set on T-24 it was 56.7 µM; with MeWo it was 67.5 µM. The CD in the data set on Arec32 [8] was 1.55 µM. For the same molecule, in data set [2], the IC50 at 72 h is 59.1 µM. In data set [3], the EC50 was over 30 µM. Moreover, the selectivity ratio came to 1.1 in data set [5], 0.9 in data set [6] and 0.8 in data set [7].
Turning to `CC(=O)OC[C@H]1O[C@@H](N=C=S)[C@H](OC(C)=O)[C@@H](OC(C)=O)[C@@H]1OC(C)=O`, the IC50 worked out at 64.6 µM with A549 [1], 48.7 µM in the data set with T-24 and 58.1 µM in the data set with MeWo. Besides, in data set [2], the IC50 at 72 h was 71.4 µM. The EC50 in [3] is over 30 µM. In the data set on Arec32 [4], the result was inactive. Further, the results for the selectivity ratio in [5], in data set [6] and in data set [7] were 1.5, 1.2 and 1.1, respectively.
Regarding `CCS(=O)(=O)[C@@H]1[C@@H](OC(C)=O)[C@H](N=C=S)O[C@H](COC(C)=O)[C@H]1OC(C)=O`, the values for the IC50 with A549 [1], with T-24 and in the data set on MeWo were 54.7 µM, 18 µM and 33 µM, respectively. Besides, the CD with Arec32 [8] was found to be 10.4 µM. Also, the IC50 at 72 h in data set [2] was determined as 35.2 µM. In [3], the EC50 is over 30 µM. Moreover, the selectivity ratio in [5] is 2; in data set [6] it was 1.1; in data set [7], 0.6.
Take `CC(=O)OC[C@H]1O[C@@H](N=C=S)[C@H](OC(C)=O)[C@@H](S(C)(=O)=O)[C@@H]1OC(C)=O`: the 50% inhibitory concentration (IC50) in the data set with A549 [1] turned out to be 62.8 µM; with T-24, 19.9 µM; with MeWo, 39 µM. In the data set with Arec32 [8], the CD is 6.21 µM. For the same molecule, the IC50 at 72 h in [2] turned out to be 40.1 µM. In data set [3], the EC50 was over 30 µM. In addition, the selectivity ratio was found to be 2 in data set [5], 1.2 in data set [6] and 0.6 in [7].

The term IC50 denotes the concentration that gives 50% inhibition. For orientation: EC50 means the concentration needed to bring the measured effect to its halfway point.
